Source: US20240025906A1 (NEURON23, INC., priority 2022, published 2024)
pIC50, pKd: −log10 of the molar value. Where two headings read alike, the source gives them in different places.

How the values were obtained:
[1] = target: T1, TYK2 JH2 (Homo sapiens, UniProt P29597); experiment: TYK2 JH2 binding assay (KINOMEscan KdELECT competitive binding); settings: TYK2 JH2 domain, DiscoverX KINOMEscan KdELECT (Assay A); read-out: Biochemical TYK2_DiscoverX_JH2_BND_Kd
T1 construct: purchased DiscoverX (KINOMEscan KdELECT service); host or cells: E. coli BL21-derived (T7 phage display) or HEK-293
How it was run: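 JH2-domain fragment, expressed as T7 phage tag in BL21-derived E. coli or DNA-tagged from HEK-293, competed with test compound against bead-immobilized biotinylated ligand in binding buffer (0.9% DMSO). 1 h shaking at room temperature; bound kinase eluted with 0.5 μM free ligand and quantified by qPCR. Kd from 11-point 3-fold dilutions.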

[2] = tested on: JAK1/TYK2 pSTAT5 (Tyr694/699) in THP-1 cell line; experiment: IFNa-stimulated JAK1/TYK2 pSTAT5 (Tyr694/699) inhibition cellular assay, AlphaLISA; assay type: cell-based; settings: THP-1 cells, IFNa-stimulated, AlphaLISA (Assay B), read-out: Cellular_THP1_IFNa-pSTATS_TYK2
How it was run: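 THP-1, 2e4 cells/well, HBSS; cpd 1 h 37 °C (10000–0.04 nM final, 6-fold, 8 pt); IFNa 100 ng/mL added, 30 min; lyse, freeze −80 °C; pSTAT5 AlphaLISA, 615 nm; 4PL IC50, bottom fixed 0, slope −1.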

T1 sequence (P29597 589-875 limits assumed): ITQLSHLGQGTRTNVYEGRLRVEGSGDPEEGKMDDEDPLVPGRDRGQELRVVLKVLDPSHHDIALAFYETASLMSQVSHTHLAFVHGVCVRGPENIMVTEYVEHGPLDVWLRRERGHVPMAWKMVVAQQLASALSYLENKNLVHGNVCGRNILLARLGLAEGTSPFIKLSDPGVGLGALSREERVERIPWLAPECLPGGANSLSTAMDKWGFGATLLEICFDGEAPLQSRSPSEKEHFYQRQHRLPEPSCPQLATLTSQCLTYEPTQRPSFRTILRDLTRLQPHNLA

Structure (SMILES): CNc1ncc(-c2nc3ccc(N4CCOCC4)cn3n2)c2cc(Nc3ccc(C(C)(C)O)cn3)ncc12 [Example 538, 2-(6-((8-(methylamino)-5-(6-morpholino-[1,2,4]triazolo[1,5-a]pyridin-2-yl)-2,7-naphthyridin-3-yl)amino)pyridin-3-yl)propan-2-ol]
- pKd [1]: ≥ 7.00
- pIC50 ([2]; Homo sapiens): ≥ 6.30

Structure (SMILES): CNc1ncc(-c2nc3ccc(N4CCO[C@@H](C)C4)cn3n2)c2cc(NC(=O)[C@H]3C[C@H]3C)ncc12 [Example 539, (1S,2R)-2-methyl-N-(8-(methylamino)-5-(6-((S)-2-methylmorpholino)-[1,2,4]triazolo[1,5-a]pyridin-2-yl)-2,7-naphthyridin-3-yl)cyclopropane-1-carboxamide]
- pKd [1]: ≥ 7.00
- pIC50 ([2]; Homo sapiens): ≥ 6.30

Structure (SMILES): CNc1ncc(-c2nc3ccc(N4CCO[C@@H](C)C4)cn3n2)c2cc(NC(=O)C3(F)CC3)ncc12 [Example 540, (S)-1-fluoro-N-(8-(methylamino)-5-(6-(2-methylmorpholino)-[1,2,4]triazolo[1,5-a]pyridin-2-yl)-2,7-naphthyridin-3-yl)cyclopropane-1-carboxamide]
- pKd [1]: ≥ 7.00
- pIC50 ([2]; Homo sapiens): ≥ 6.30

Structure (SMILES): CNc1ncc(-c2nc3ccc(N4CCO[C@@H](C)C4)cn3n2)c2cc(Nc3ccccn3)ncc12 [Example 543, (S)—N^1-methyl-4-(6-(2-methylmorpholino)-[1,2,4]triazolo[1,5-a]pyridin-2-yl)-N^6-(pyridin-2-yl)-2,7-naphthyridine-1,6-diamine]
- pKd [1]: ≥ 7.00
- pIC50 ([2]; Homo sapiens): ≥ 6.30

Structure (SMILES): CNc1ncc(-c2nc3ccc(N4CCO[C@@H](C)C4)cn3n2)c2cc(Nc3cc(C)n(C)n3)ncc12 [Example 544, (S)—N^6-(1,5-dimethyl-1H-pyrazol-3-yl)-N^1-methyl-4-(6-(2-methylmorpholino)-[1,2,4]triazolo[1,5-a]pyridin-2-yl)-2,7-naphthyridine-1,6-diamine]
- pKd [1]: ≥ 7.00
- pIC50 ([2]; Homo sapiens): ≥ 6.30

Structure (SMILES): CNc1ncc(-c2nc3ccc(N4CCO[C@@H](C)C4)cn3n2)c2cc(Nc3ccn(C)n3)ncc12 [Example 545, (S)—N^1-methyl-N^6-(1-methyl-1H-pyrazol-3-yl)-4-(6-(2-methylmorpholino)-[1,2,4]triazolo[1,5-a]pyridin-2-yl)-2,7-naphthyridine-1,6-diamine]
- pKd [1]: ≥ 7.00
- pIC50 ([2]; Homo sapiens): ≥ 6.30

Structure (SMILES): CNc1ncc(-c2nc3ccc(N4CCO[C@H](C)C4)cn3n2)c2cc(NC(=O)[C@@H]3C[C@@H]3C)ncc12 [Example 546, (1R,2S)-2-methyl 1N-(8-(methylamino)-5-(6-((R)-2-methylmorpholino)-[1,2,4]triazolo[1,5-a]pyridin-2-yl)-2,7-naphthyridin-3-yl)cyclopropane-1-carboxamide]
- pKd [1]: ≥ 7.00
- pIC50 ([2]; Homo sapiens): ≥ 6.30

Structure (SMILES): CNc1ncc(-c2nc3ccc(N4CCO[C@H](C)C4)cn3n2)c2cc(NC(=O)[C@H]3C[C@H]3C)ncc12 [Example 547, (1S,2R)-2-methyl-N-(8-(methylamino)-5-(6-((R)-2-methylmorpholino)-[1,2,4]triazolo[1,5-a]pyridin-2-yl)-2,7-naphthyridin-3-yl)cyclopropane-1-carboxamide]
- pKd [1]: ≥ 7.00
- pIC50 ([2]; Homo sapiens): ≥ 6.30

Structure (SMILES): CNc1ncc(-c2nc3ccc(N4CCO[C@H](C)C4)cn3n2)c2cc(NC(=O)[C@H]3C[C@H]3F)ncc12 [Example 548, (1R,2R)-2-fluoro-N-(8-(methylamino)-5-(6-((R)-2-methylmorpholino)-[1,2,4]triazolo[1,5-a]pyridin-2-yl)-2,7-naphthyridin-3-yl)cyclopropane-1-carboxamide]
- pKd [1]: ≥ 7.00
- pIC50 ([2]; Homo sapiens): ≥ 6.30

Structure (SMILES): CNc1ncc(-c2nc3ccc(N4CCO[C@H](C)C4)cn3n2)c2cc(NC(=O)[C@@H]3C[C@@H]3F)ncc12 [Example 549, (1S,2S)-2-fluoro-N-(8-(methylamino)-5-(6-((R)-2-methylmorpholino)-[1,2,4]triazolo[1,5-a]pyridin-2-yl)-2,7-naphthyridin-3-yl)cyclopropane-1-carboxamide]
- pKd [1]: ≥ 7.00
- pIC50 ([2]; Homo sapiens): ≥ 6.30

Structure (SMILES): CNc1ncc(-c2nc3ccc(N4CCO[C@H](C)C4)cn3n2)c2cc(NC(=O)C3(F)CC3)ncc12 [Example 550, (R)-1-fluoro-N-(8-(methylamino)-5-(6-(2-methylmorpholino)-[1,2,4]triazolo[1,5-a]pyridin-2-yl)-2,7-naphthyridin-3-yl)cyclopropane-1-carboxamide]
- pKd [1]: ≥ 7.00
- pIC50 ([2]; Homo sapiens): ≥ 6.30

Structure (SMILES): CNc1ncc(-c2nc3ccc(N4CCO[C@H](C)C4)cn3n2)c2cc(Nc3ccccn3)ncc12 [Example 551, (R)—N^1-methyl-4-(6-(2-methylmorpholino)-[1,2,4]triazolo[1,5-a]pyridin-2-yl)-N^6-(pyridin-2-yl)-2,7-naphthyridine-1,6-diamine]
- pKd [1]: ≥ 7.00
- pIC50 ([2]; Homo sapiens): ≥ 6.30

Structure (SMILES): CNc1ncc(-c2nc3ccc(N4CCO[C@H](C)C4)cn3n2)c2cc(NC(=O)NC3CC3)ncc12 [Example 552, (R)-1-cyclopropyl-3-(8-(methylamino)-5-(6-(2-methylmorpholino)-[1,2,4]triazolo[1,5-a]pyridin-2-yl)-2,7-naphthyridin-3-yl)urea]
- pKd [1]: ≥ 7.00
- pIC50 ([2]; Homo sapiens): ≥ 6.30

Structure (SMILES): CNc1ncc(-c2nc3ccc(N4C[C@@H](C)O[C@@H](C)C4)cn3n2)c2cc(N)ncc12 [Example 553, 4-(6-((2R,6S)-2,6-dimethylmorpholino)-[1,2,4]triazolo[1,5-a]pyridin-2-yl)-N^1-methyl-2,7-naphthyridine-1,6-diamine]
- pKd [1]: ≥ 7.00
- pIC50 ([2]; Homo sapiens): < 6.30

Structure (SMILES): CNc1ncc(-c2nc3ccc(N4C[C@@H](C)O[C@@H](C)C4)cn3n2)c2cc(NC(=O)[C@@H]3C[C@@H]3F)ncc12 [Example 554, (1S,2S)—N-(5-(6-((2R,6S)-2,6-dimethylmorpholino)-[1,2,4]triazolo[1,5-a]pyridin-2-yl)-8-(methylamino)-2,7-naphthyridin-3-yl)-2-fluoracyclopropane-1-carboxamide]
- pKd [1]: ≥ 7.00
- pIC50 [2]: ≥ 6.30

Structure (SMILES): CNc1ncc(-c2nc3ccc(N4C[C@@H](C)O[C@@H](C)C4)cn3n2)c2cc(NC(=O)[C@H]3C[C@H]3C)ncc12 [Example 555, (1S,2R)-N-(5-(6-((2R,6S)-2,6-dimethylmorpholino)-[1,2,4]triazolo[1,5-a]pyridin-2-yl)-8-(methylamino)-2,7-naphthyridin-3-yl)-2-methylcyclopropane-1-carboxamide]
- pKd [1]: ≥ 7.00
- pIC50 ([2]; Homo sapiens): ≥ 6.30

Structure (SMILES): CNc1ncc(-c2nc3ccc(N4C[C@@H](C)O[C@@H](C)C4)cn3n2)c2cc(NC(=O)CC(F)(F)F)ncc12 [Example 556, N-(5-(6-((2R,6S)-2,6-dimethylmorpholino)-[1,2,4]triazolo[1,5-a]pyridin-2-yl)-8-(methylamino)-2,7-naphthyridin-3-yl)-3,3,3-trifluoropropanamide]
- pKd [1]: ≥ 7.00
- pIC50 ([2]; Homo sapiens): ≥ 6.30

Structure (SMILES): CNc1ncc(-c2nc3ccccn3n2)c2cc(Nc3ccccn3)ncc12 [Example 557, 4-([1,2,4]triazolo[1,5-a]pyridin-2-yl)-N^1-methyl-N^6-(pyridin-2-yl)-2,7-naphthyridine-1,6-diamine]
- pKd [1]: ≥ 7.00
- pIC50 ([2]; Homo sapiens): ≥ 6.30

Structure (SMILES): CNc1ncc(-c2nc3ccc(N4CCC(F)(F)CC4)cn3n2)c2cc(NC(=O)[C@H]3C[C@H]3C)ncc12 [Example 558, (1S,2R)—N-(5-(6-(4,4-difluoropiperidin-1-yl)-[1,2,4]triazolo[1,5-a]pyridin-2-yl)-8-(methylamino)-2,7-naphthyridin-3-yl)-2-methylcyclopropane-1-carboxamide]
- pKd [1]: ≥ 7.00
- pIC50 ([2]; Homo sapiens): ≥ 6.30

Structure (SMILES): CNc1ncc(-c2nc3ccc(N4CC5CN(C)CC(C4)O5)cn3n2)c2cc(NC(=O)C3(F)CC3)ncc12 [Example 559, 1-fluoro-N-(5-(6-(7-methyl-9-oxa-3,7-diazabicyclo[3.3.1]nonan-3-yl)-[1,2,4]triazolo[1,5-a]pyridin-2-yl)-8-(methylamino)-2,7-naphthyridin-3-yl)cyclopropane-1-carboxamide]
- pKd [1]: ≥ 7.00
- pIC50 ([2]; Homo sapiens): ≥ 6.30

Structure (SMILES): CNc1ncc(-c2nc3ccc(N4CC5CN(C)CC(C4)O5)cn3n2)c2cc(NC(=O)[C@H]3C[C@H]3C)ncc12 [Example 560, (1S,2R)-2-methyl-N-(5-(6-(7-methyl-9-oxa-3,7-diazabicyclo[3.3.1]nonan-3-yl)-[1,2,4]triazolo[1,5-a]pyridin-2-yl)-8-(methylamino)-2,7-naphthyridin-3-yl)cyclopropane-1-carboxamide]
- pKd [1]: ≥ 7.00
- pIC50 ([2]; Homo sapiens): ≥ 6.30

Structure (SMILES): CNc1ncc(-c2nc3ccc(C)cn3n2)c2cc(NC(=O)C3CCC3)ncc12 [Example 561, N-(5-(6-methyl-[1,2,4]triazolo[1,5-a]pyridin-2-yl)-8-(methylamino)-2,7-naphthyridin-3-yl)cyclobutanecarboxamide]
- pKd [1]: ≥ 7.00
- pIC50 ([2]; Homo sapiens): ≥ 6.30

Structure (SMILES): CNc1ncc(-c2nc3ccc(C)cn3n2)c2cc(NC(=O)[C@H]3C[C@H]3C)ncc12 [Example 562, (1S,2R)-2-methyl-N-(5-(6-methyl-[1,2,4]triazolo[1,5-a]pyridin-2-yl)-8-(methylamino)-2,7-naphthyridin-3-yl)cyclopropane-1-carboxamide]
- pKd [1]: ≥ 7.00
- pIC50 ([2]; Homo sapiens): ≥ 6.30

Structure (SMILES): CNc1ncc(-c2nc3ccc(N4C[C@H]5C[C@@H]4CO5)cn3n2)c2cc(NC(=O)C3(F)CC3)ncc12 [Example 563, N-(5-(6-((1R,4R)-2-oxa-5-azabicyclo[2.2.1]heptan-5-yl)-[1,2,4]triazolo[1,5-a]pyridin-2-yl)-8-(methylamino)-2,7-naphthyridin-3-yl)-1-fluorocyclopropane-1-carboxamide]
- pKd [1]: ≥ 7.00
- pIC50 ([2]; Homo sapiens): ≥ 6.30
